According to patent US20240215573A1, “LIQUID AGROCHEMICAL COMPOSITION” (NOURYON CHEMICALS INTERNATIONAL B.V., priority 2020, published 2024):

How the values were obtained:
Type in all cases: in vivo
fungi = assay: Greenhouse Test 2: overall comparison over the 4 fungicide formulations and 4 fungi; conditions: all 4 fungicide formulations; summary in words
Text: (§1) In a second series of Examples, the following compounds are utilized to evaluate the efficacy of various fungicides in combination with various surfactants against fungi: • Fungicides: Hexaconazole 5% EC; Dimethomorph 50WP; Thiophenate methyl 70% WP; Azoxystrobin 23 SC • Surfactants: • Dioctyl sulfosuccinate • Alkoxylated glyceride with 20EO; • Alkoxylated glyceride with 50EO; • Siloxane Polyalkyleneoxide Copolymer • Fungi: • Powdery mildew (Erysiphenecator); • Downy mildew (Plasmopara viticola); • Anthracnose (Colletotrichum gloeosporioides); and • Early blight (Alternariasolani). The following test protocol is used:
(§2) There are 4 different fungicide formulations tested against 4 different pests (fungi). For each test there are untreated control (#1) and fungicide only w/o surfactant (#2). The same general protocol described above was used.

[1] = tested on: Anthracnose (Colletotrichum gloeosporioides); assay: Greenhouse Test 2: Thiophenate methyl 70% WP with surfactants against anthracnose of grapes; conditions: Table C, summary in words
Text: as §1, §2
Percent Disease Index (PDI) for powdery mildew, downy mildew, anthracnose and early blight diseases were calculated by following formulae: […]
In case of grapes ratings on minimum ten leaves and a bunch were recorded on randomly selected canes. Ten such canes per plant were observed. The observations on 8 plants spread over four replication were recorded. Thus, the data presented on PDI is average of randomly selected 80 canes.

Alfalfa [2] = assay: Greenhouse Test 1: weed control by 2,4-D with surfactants
Text: In a first series of Examples, the following compounds are utilized to evaluate the efficacy of various herbicides in combination with various surfactants against two types of weeds: • Herbicides: […]; dicamba; and glufosinate • Surfactants: Glycerol Monosoyate+10EO; • Glycerol Monosoyate+15EO; • Glycerol Monosoyate+20EO; • Glycerol Monosoyate+30EO; • Glycerol Monosoyate+50EO; • Soybean oil+20EO; • Reference 1—Polyoxyethylene (20) sorbitan monolaurate • Reference 2—Sodium lauryl ether sulfate The following test protocol is used:
(§3) Data is collected at end of each week for 4 weeks.

Morning glory = assay: Greenhouse Test 1: weed control by glufosinate with surfactants
Text: (§4) In a first series of Examples, the following compounds are utilized to evaluate the efficacy of various herbicides in combination with various surfactants against two types of weeds: • Herbicides: 2,4-D ester; dicamba; and glufosinate • Surfactants: Glycerol Monosoyate+10EO; • Glycerol Monosoyate+15EO; • Glycerol Monosoyate+20EO; • Glycerol Monosoyate+30EO; • Glycerol Monosoyate+50EO; • Soybean oil+20EO; • Reference 1—Polyoxyethylene (20) sorbitan monolaurate • Reference 2—Sodium lauryl ether sulfate The following test protocol is used:
as §3

Alfalfa [3] = assay: Greenhouse Test 1: weed control by dicamba with surfactants
Text: as §4, §3

[4] = Table 1A: 2,4-D DMA 91 g ae/A, surfactant 0.1%
[5] = Table 1B: 2,4-D DMA 91 g ae/A, surfactant 0.25%
[6] = Table 1C: 2,4-D DMA 91 g ae/A, surfactant 0.25% (so in the source)
[7] = Table 1D: 2,4-D DMA 91 g ae/A (so in the source), surfactant 0.25%
[8] = Table 3A: Glufosinate 3 oz/a, surfactant 0.25%
[9] = Table 3B: Glufosinate 3 oz/a, surfactant 0.5%
[10] = Table 3C: Glufosinate 6 oz/a, surfactant 0.25%
[11] = Table 3D: Glufosinate 6 oz/a, surfactant 0.50%
[12] = Table 2A: Dicamba 23 g ae/A, surfactant 0.1%
[13] = Table 2B: Dicamba 23 g ae/A, surfactant 0.25%
[14] = Table 2C: Dicamba 45 g ae/A, surfactant 0.1%
[15] = Table 2D: Dicamba 45 g ae/A, surfactant 0.25%

Q: Which results are given for `CCCCCCCCOC(=O)CC(C(=O)OCCCCCCCC)S(=O)(=O)O` (centres unmarked) [dioctyl sulfosuccinate, Dioctyl sulfosuccinate]?
A: overall disease control with fungicides (fungi): overall good control in all cases; efficacy compared with alkoxylated glyceride with 20EO [1]: lack of efficacy as compared to the alkoxylated glyceride with 20EO

Q: “Polyoxyethylene (20) sorbitan monolaurate” was tested. Which “% weed control, 7 day” value (Alfalfa [2]; [4]) did it give?
A: 67.5%

Q: And the “% weed control, 14 day” value (Alfalfa [2]; [4])?
A: 83.8%

Q: What about the “% weed control, 21 day” value (Alfalfa [2]; [4]) of the same compound?
A: 70.0%

Q: And the “% weed control, 28 day” value (Alfalfa [2]; [4])?
A: 72.5%

Q: What about the “% weed control, 7 day” value (Alfalfa [2]; [5]) of the same compound?
A: 67.5%

Q: And the “% weed control, 14 day” value (Alfalfa [2]; [5])?
A: 81.3%

Q: And the “% weed control, 21 day” value (Alfalfa [2]; [5])?
A: 67.5%

Q: What about the “% weed control, 28 day” value (Alfalfa [2]; [5]) of the same compound?
A: 72.5%

Q: What about the “% weed control, 7 day” value (Alfalfa [2]; [6]) of the same compound?
A: 72.5%

Q: And the “% weed control, 14 day” value (Alfalfa [2]; [6])?
A: 86.3%

Q: And the “% weed control, 21 day” value (Alfalfa [2]; [6])?
A: 80.0%

Q: And the “% weed control, 28 day” value (Alfalfa [2]; [6])?
A: 85.0%

Q: What about the “% weed control, 7 day” value (Alfalfa [2]; [7]) of the same compound?
A: 72.5%

Q: And the “% weed control, 14 day” value (Alfalfa [2]; [7])?
A: 82.5%

Q: And the “% weed control, 21 day” value (Alfalfa [2]; [7])?
A: 76.3%

Q: What about the “% weed control, 28 day” value (Alfalfa [2]; [7]) of the same compound?
A: 81.3%

Q: And the “% weed control, 7 day” value (Morning glory; [8])?
A: 85.0%

Q: And the “% weed control, 14 day” value (Morning glory; [8])?
A: 80.0%

Q: And the “% weed control, 21 day” value (Morning glory; [8])?
A: 58.8%

Q: And the “% weed control, 28 day” value (Morning glory; [8])?
A: 56.3%

Q: What about the “% weed control, 7 day” value (Morning glory; [9]) of the same compound?
A: 91.3%

Q: What about the “% weed control, 14 day” value (Morning glory; [9]) of the same compound?
A: 92.0%

Q: And the “% weed control, 21 day” value (Morning glory; [9])?
A: 85.0%

Q: And the “% weed control, 28 day” value (Morning glory; [9])?
A: 82.5%

Q: What about the “% weed control, 7 day” value (Morning glory; [10]) of the same compound?
A: 91.3%

Q: What about the “% weed control, 14 day” value (Morning glory; [10]) of the same compound?
A: 91.3%

Q: And the “% weed control, 21 day” value (Morning glory; [10])?
A: 82.5%

Q: And the “% weed control, 28 day” value (Morning glory; [10])?
A: 81.3%

Q: And the “% weed control, 7 day” value (Morning glory; [11])?
A: 91.3%

Q: What about the “% weed control, 14 day” value (Morning glory; [11]) of the same compound?
A: 93.8%

Q: And the “% weed control, 21 day” value (Morning glory; [11])?
A: 94.5%

Q: And the “% weed control, 28 day” value (Morning glory; [11])?
A: 95.8%

Q: What about the “% weed control, 7 day” value (Alfalfa [3]; [12]) of the same compound?
A: 62.5%

Q: And the “% weed control, 14 day” value (Alfalfa [3]; [12])?
A: 73.8%

Q: And the “% weed control, 21 day” value (Alfalfa [3]; [12])?
A: 50.0%

Q: What about the “% weed control, 28 day” value (Alfalfa [3]; [12]) of the same compound?
A: 62.5%

Q: And the “% weed control, 7 day” value (Alfalfa [3]; [13])?
A: 60.0%

Q: And the “% weed control, 14 day” value (Alfalfa [3]; [13])?
A: 70.0%

Q: And the “% weed control, 21 day” value (Alfalfa [3]; [13])?
A: 50.0%

Q: And the “% weed control, 28 day” value (Alfalfa [3]; [13])?
A: 50.0%

Q: And the “% weed control, 7 day” value (Alfalfa [3]; [14])?
A: 77.5%

Q: And the “% weed control, 14 day” value (Alfalfa [3]; [14])?
A: 87.5%

Q: And the “% weed control, 21 day” value (Alfalfa [3]; [14])?
A: 76.3%

Q: And the “% weed control, 28 day” value (Alfalfa [3]; [14])?
A: 81.3%

Q: What about the “% weed control, 7 day” value (Alfalfa [3]; [15]) of the same compound?
A: 70.0%

Q: What about the “% weed control, 14 day” value (Alfalfa [3]; [15]) of the same compound?
A: 83.8%

Q: What about the “% weed control, 21 day” value (Alfalfa [3]; [15]) of the same compound?
A: 75.0%

Q: And the “% weed control, 28 day” value (Alfalfa [3]; [15])?
A: 78.8%

Q: Which “% weed control, 7 day” value (Alfalfa [2]; [4]) does the source give for Sodium lauryl ether sulfate here?
A: 67.5%

Q: And the “% weed control, 14 day” value (Alfalfa [2]; [4])?
A: 83.8%

Q: And the “% weed control, 21 day” value (Alfalfa [2]; [4])?
A: 73.8%

Q: And the “% weed control, 28 day” value (Alfalfa [2]; [4])?
A: 75.0%

Q: What about the “% weed control, 7 day” value (Alfalfa [2]; [5]) of the same compound?
A: 67.5%

Q: What about the “% weed control, 14 day” value (Alfalfa [2]; [5]) of the same compound?
A: 82.5%

Q: What about the “% weed control, 21 day” value (Alfalfa [2]; [5]) of the same compound?
A: 72.5%

Q: And the “% weed control, 28 day” value (Alfalfa [2]; [5])?
A: 67.5%

Q: And the “% weed control, 7 day” value (Alfalfa [2]; [6])?
A: 72.5%

Q: What about the “% weed control, 14 day” value (Alfalfa [2]; [6]) of the same compound?
A: 86.3%

Q: And the “% weed control, 21 day” value (Alfalfa [2]; [6])?
A: 86.3%

Q: And the “% weed control, 28 day” value (Alfalfa [2]; [6])?
A: 87.5%

Q: What about the “% weed control, 7 day” value (Alfalfa [2]; [7]) of the same compound?
A: 75.0%

Q: What about the “% weed control, 14 day” value (Alfalfa [2]; [7]) of the same compound?
A: 85.0%

Q: And the “% weed control, 21 day” value (Alfalfa [2]; [7])?
A: 82.5%

Q: And the “% weed control, 28 day” value (Alfalfa [2]; [7])?
A: 83.8%

Q: And the “% weed control, 7 day” value (Morning glory; [8])?
A: 85.0%

Q: What about the “% weed control, 14 day” value (Morning glory; [8]) of the same compound?
A: 75.0%

Q: And the “% weed control, 21 day” value (Morning glory; [8])?
A: 55.0%

Q: What about the “% weed control, 28 day” value (Morning glory; [8]) of the same compound?
A: 55.0%

Q: What about the “% weed control, 7 day” value (Morning glory; [9]) of the same compound?
A: 87.5%

Q: What about the “% weed control, 14 day” value (Morning glory; [9]) of the same compound?
A: 90.0%

Q: And the “% weed control, 21 day” value (Morning glory; [9])?
A: 87.5%

Q: What about the “% weed control, 28 day” value (Morning glory; [9]) of the same compound?
A: 77.5%

Q: What about the “% weed control, 7 day” value (Morning glory; [10]) of the same compound?
A: 92.5%

Q: What about the “% weed control, 14 day” value (Morning glory; [10]) of the same compound?
A: 95.8%

Q: What about the “% weed control, 21 day” value (Morning glory; [10]) of the same compound?
A: 95.8%

Q: What about the “% weed control, 28 day” value (Morning glory; [10]) of the same compound?
A: 96.5%

Q: What about the “% weed control, 7 day” value (Morning glory; [11]) of the same compound?
A: 90.0%

Q: What about the “% weed control, 14 day” value (Morning glory; [11]) of the same compound?
A: 88.8%

Q: And the “% weed control, 21 day” value (Morning glory; [11])?
A: 91.3%

Q: And the “% weed control, 28 day” value (Morning glory; [11])?
A: 89.5%

Q: What about the “% weed control, 7 day” value (Alfalfa [3]; [12]) of the same compound?
A: 72.5%

Q: And the “% weed control, 14 day” value (Alfalfa [3]; [12])?
A: 81.3%

Q: What about the “% weed control, 21 day” value (Alfalfa [3]; [12]) of the same compound?
A: 71.3%

Q: What about the “% weed control, 28 day” value (Alfalfa [3]; [12]) of the same compound?
A: 70.0%

Q: What about the “% weed control, 7 day” value (Alfalfa [3]; [13]) of the same compound?
A: 65.0%

Q: What about the “% weed control, 14 day” value (Alfalfa [3]; [13]) of the same compound?
A: 80.0%

Q: What about the “% weed control, 21 day” value (Alfalfa [3]; [13]) of the same compound?
A: 67.5%

Q: What about the “% weed control, 28 day” value (Alfalfa [3]; [13]) of the same compound?
A: 70.0%

Q: And the “% weed control, 7 day” value (Alfalfa [3]; [14])?
A: 72.5%

Q: What about the “% weed control, 14 day” value (Alfalfa [3]; [14]) of the same compound?
A: 82.5%

Q: What about the “% weed control, 21 day” value (Alfalfa [3]; [14]) of the same compound?
A: 76.3%

Q: And the “% weed control, 28 day” value (Alfalfa [3]; [14])?
A: 76.3%

Q: And the “% weed control, 7 day” value (Alfalfa [3]; [15])?
A: 67.5%

Q: And the “% weed control, 14 day” value (Alfalfa [3]; [15])?
A: 82.5%

Q: And the “% weed control, 21 day” value (Alfalfa [3]; [15])?
A: 75.0%

Q: And the “% weed control, 28 day” value (Alfalfa [3]; [15])?
A: 75.0%
